Measurements from patent US20250312352A1, “GLP-1R MODULATING COMPOUNDS” (Gilead Sciences, Inc., priority 2021, published 2025).

molecular target: T1, GLP-1R (Homo sapiens, UniProt P43220); experiment: GLP-1R activation cAMP assay (Assay 1 or Assay 2); type: cell-based; settings: cAMP increase in CHO cells stably expressing GLP-1R; compounds run on one of the two cAMP assays
T1 construct: host or cells: CHO cells
Procedure, shortened: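 EC50 values come from a sigmoidal fit of HTRF-detected cAMP rise versus log agonist concentration. GLP-1R-expressing CHO cells, equilibrated 1 h at 37 °C in HBSS with HEPES and BSA, received a 10-point compound dose series for 30 min before detection.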

T1 sequence (P43220 24-463): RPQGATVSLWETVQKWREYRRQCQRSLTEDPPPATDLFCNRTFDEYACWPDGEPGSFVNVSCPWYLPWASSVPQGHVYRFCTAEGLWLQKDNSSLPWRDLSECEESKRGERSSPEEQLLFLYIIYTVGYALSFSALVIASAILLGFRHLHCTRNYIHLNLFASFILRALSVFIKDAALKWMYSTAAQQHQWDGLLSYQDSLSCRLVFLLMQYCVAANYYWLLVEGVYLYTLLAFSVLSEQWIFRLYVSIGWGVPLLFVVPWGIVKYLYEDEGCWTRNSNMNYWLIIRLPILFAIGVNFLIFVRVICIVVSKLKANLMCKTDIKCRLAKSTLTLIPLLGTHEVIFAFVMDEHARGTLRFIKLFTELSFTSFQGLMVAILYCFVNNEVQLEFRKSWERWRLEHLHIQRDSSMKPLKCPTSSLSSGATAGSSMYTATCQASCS

Compared with `O=C(O)c1ccc2nc(Cc3cc(F)c(-c4cccc(OCc5nc6c(s5)CCC6)n4)cc3F)n(C[C@@H]3CCO3)c2c1` [Example 332, (S)-2-(4-(6-((5,6-dihydro-4H-cyclopenta[d]thiazol-2-yl)methoxy)pyridin-2-yl)-2,5-difluorobenzyl)-1-(oxetan-2-ylmethyl)-1H-benzo[d]imidazole-6-carboxylic acid], `Cc1nc(C)c(COc2cccc(-c3cc(F)c(Cc4nc5ccc(C(=O)O)cc5n4C[C@@H]4CCO4)cc3F)n2)s1` [Example 354, (S)-2-(4-(6-((2,4-dimethylthiazol-5-yl)methoxy)pyridin-2-yl)-2,5-difluorobenzyl)-1-(oxetan-2-ylmethyl)-1H-benzo[d]imidazole-6-carboxylic acid] is 5.7-fold higher in EC50: 0.109 nM for the first, 0.622 nM for the second.

`O=C(O)c1ccc2nc(Cc3cc(F)c(-c4cccc(OCc5ncc(C#CC6CCC6)s5)n4)cc3F)n(C[C@@H]3CCO3)c2c1` [Example 333, (S)-2-(4-(6-((5-(cyclobutylethynyl)thiazol-2-yl)methoxy)pyridin-2-yl)-2,5-difluorobenzyl)-1-(oxetan-2-ylmethyl)-1H-benzo[d]imidazole-6-carboxylic acid] and `O=C(O)c1ccc2nc(Cc3cc(F)c(-c4cccc(OCc5ncc(C#CC6CC(F)(F)C6)s5)n4)cc3F)n(C[C@@H]3CCO3)c2c1` [Example 336, (S)-2-(4-(6-((5-((3,3-difluorocyclobutyl)ethynyl)thiazol-2-yl)methoxy)pyridin-2-yl)-2,5-difluorobenzyl)-1-(oxetan-2-ylmethyl)-1H-benzo[d]imidazole-6-carboxylic acid] are within 1.5-fold of each other in EC50: 0.205 nM for the first, 0.261 nM for the second.

First: CC(C)(O)C#Cc1cnc(COc2cccc(-c3cc(F)c(Cc4nc5ccc(C(=O)O)cc5n4C[C@@H]4CCO4)cc3F)n2)s1 [Example 334, (S)-2-(2,5-difluoro-4-(6-((5-(3-hydroxy-3-methylbut-1-yn-1-yl)thiazol-2-yl)methoxy)pyridin-2-yl)benzyl)-1-(oxetan-2-ylmethyl)-1H-benzo[d]imidazole-6-carboxylic acid]
Second: O=C(O)c1ccc2nc(Cc3cc(F)c(-c4cccc(OCc5ncc(C#CC6(C(F)(F)F)CC6)s5)n4)cc3F)n(C[C@@H]3CCO3)c2c1 [Example 335, (S)-2-(2,5-difluoro-4-(6-((5-((1-(trifluoromethyl)cyclopropyl)ethynyl)thiazol-2-yl)methoxy)pyridin-2-yl)benzyl)-1-(oxetan-2-ylmethyl)-1H-benzo[d]imidazole-6-carboxylic acid]
The EC50 of the first is 1.8-fold higher: 0.354 nM for the first, 0.202 nM for the second. The second is the more potent here.

First: Cc1cc(Cc2nc3ccc(C(=O)O)cc3n2[C@@H]2COCC2(C)C)c(F)cc1-c1ccc(F)c(OCc2ncc(C(C)(F)F)s2)n1 [Example 337, (S)-2-(4-(6-((5-(1,1-difluoroethyl)thiazol-2-yl)methoxy)-5-fluoropyridin-2-yl)-2-fluoro-5-methylbenzyl)-1-(4,4-dimethyltetrahydrofuran-3-yl)-1H-benzo[d]imidazole-6-carboxylic acid]
Second: CC(F)(F)c1cnc(COc2nc(-c3cc(F)c(Cc4nc5ccc(C(=O)O)cc5n4[C@@H]4COCC4(C)C)cc3F)ccc2F)s1 [Example 340, (S)-2-(4-(6-((5-(1,1-difluoroethyl)thiazol-2-yl)methoxy)-5-fluoropyridin-2-yl)-2,5-difluorobenzyl)-1-(4,4-dimethyltetrahydrofuran-3-yl)-1H-benzo[d]imidazole-6-carboxylic acid]
The EC50 of the first is 21-fold higher: 1.2 nM for the first, 0.058 nM for the second. The second is the more potent here.

First: CC(F)(F)c1cnc(COc2nc(-c3cc(F)c(Cc4nc5c(F)cc(C(=O)O)cc5n4[C@@H]4COCC4(C)C)cc3F)ccc2F)s1 [Example 338, (S)-2-(4-(6-((5-(1,1-difluoroethyl)thiazol-2-yl)methoxy)-5-fluoropyridin-2-yl)-2,5-difluorobenzyl)-1-(4,4-dimethyltetrahydrofuran-3-yl)-4-fluoro-1H-benzo[d]imidazole-6-carboxylic acid]
Second: COc1nnc(COc2nc(-c3cc(F)c(Cc4nc5c(F)cc(C(=O)O)cc5n4[C@@H]4COCC4(C)C)cc3F)ccc2F)s1 [Example 346, (S)-2-(2,5-difluoro-4-(5-fluoro-6-((5-methoxy-1,3,4-thiadiazol-2-yl)methoxy)pyridin-2-yl)benzyl)-1-(4,4-dimethyltetrahydrofuran-3-yl)-4-fluoro-1H-benzo[d]imidazole-6-carboxylic acid]
The EC50 of the first is 8.1-fold higher: 0.218 nM for the first, 0.027 nM for the second. The second is the more potent here.

`COc1nnc(COc2nc(-c3cc(F)c(Cc4nc5ccc(C(=O)O)cc5n4[C@@H]4COCC4(C)C)cc3F)ccc2F)s1` [Example 339, (S)-2-(2,5-difluoro-4-(5-fluoro-6-((5-methoxy-1,3,4-thiadiazol-2-yl)methoxy)pyridin-2-yl)benzyl)-1-(4,4-dimethyltetrahydrofuran-3-yl)-1H-benzo[d]imidazole-6-carboxylic acid] and `COc1nnc(COc2cccc(-c3cc(F)c(Cc4nc5ccc(C(=O)O)cc5n4[C@@H]4COCC4(C)C)cc3F)n2)s1` [Example 342, (S)-2-(2,5-difluoro-4-(6-((5-methoxy-1,3,4-thiadiazol-2-yl)methoxy)pyridin-2-yl)benzyl)-1-(4,4-dimethyltetrahydrofuran-3-yl)-1H-benzo[d]imidazole-6-carboxylic acid] are within 1.5-fold of each other in EC50: 0.043 nM for the first, 0.039 nM for the second.

Going from `CC1(C)COCC1n1c(Cc2cc(F)c(-c3cccc(OCc4ncc(C(F)F)s4)n3)cc2F)nc2c(F)cc(C(=O)O)cc21` (stereo not drawn) [Example 341, 2-(4-(6-((5-(difluoromethyl)thiazol-2-yl)methoxy)pyridin-2-yl)-2,5-difluorobenzyl)-1-(4,4-dimethyltetrahydrofuran-3-yl)-4-fluoro-1H-benzo[d]imidazole-6-carboxylic acid] to `COc1nnc(COc2cccc(-c3cc(F)c(Cc4nc5c(F)cc(C(=O)O)cc5n4[C@@H]4COCC4(C)C)cc3F)n2)s1` [Example 345, (S)-2-(2,5-difluoro-4-(6-((5-methoxy-1,3,4-thiadiazol-2-yl)methoxy)pyridin-2-yl)benzyl)-1-(4,4-dimethyltetrahydrofuran-3-yl)-4-fluoro-1H-benzo[d]imidazole-6-carboxylic acid], the EC50 falls from 0.772 nM to 0.027 nM (29-fold).

`CC1(COc2nnc(COc3cccc(-c4cc(F)c(Cc5nc6ccc(C(=O)O)cc6n5C[C@@H]5CCO5)cc4F)n3)s2)CC1` [Example 343, (S)-2-(2,5-difluoro-4-(6-((5-((1-methylcyclopropyl)methoxy)-1,3,4-thiadiazol-2-yl)methoxy)pyridin-2-yl)benzyl)-1-(oxetan-2-ylmethyl)-1H-benzo[d]imidazole-6-carboxylic acid] and `O=C(O)c1ccc2nc(Cc3cc(F)c(-c4cccc(OCc5nnc(OCC(F)F)s5)n4)cc3F)n(C[C@@H]3CCO3)c2c1` [Example 352, (S)-2-(4-(6-((5-(2,2-difluoroethoxy)-1,3,4-thiadiazol-2-yl)methoxy)pyridin-2-yl)-2,5-difluorobenzyl)-1-(oxetan-2-ylmethyl)-1H-benzo[d]imidazole-6-carboxylic acid] are within 1.5-fold of each other in EC50: 0.459 nM for the first, 0.52 nM for the second.

Going from `O=C(O)c1ccc2nc(Cc3cc(F)c(-c4cccc(OCc5nnc(OC6CCC6)s5)n4)cc3F)n(C[C@@H]3CCO3)c2c1` [Example 344, (S)-2-(4-(6-((5-cyclobutoxy-1,3,4-thiadiazol-2-yl)methoxy)pyridin-2-yl)-2,5-difluorobenzyl)-1-(oxetan-2-ylmethyl)-1H-benzo[d]imidazole-6-carboxylic acid] to `O=C(O)c1ccc2nc(Cc3cc(F)c(-c4cccc(OCc5nnc(OC6CC(C(F)F)C6)s5)n4)cc3F)n(C[C@@H]3CCO3)c2c1` (stereo partly drawn) [Example 347, (S)-2-(4-(6-((5-(3-(difluoromethyl)cyclobutoxy)-1,3,4-thiadiazol-2-yl)methoxy)pyridin-2-yl)-2,5-difluorobenzyl)-1-(oxetan-2-ylmethyl)-1H-benzo[d]imidazole-6-carboxylic acid], the EC50 rises from 0.055 nM to 0.271 nM (4.9-fold).

Compared with `CC(=O)N1CC(Oc2nnc(COc3cccc(-c4cc(F)c(Cc5nc6ccc(C(=O)O)cc6n5C[C@@H]5CCO5)cc4F)n3)s2)C1` [Example 348, (S)-2-(4-(6-((5-((1-acetylazetidin-3-yl)oxy)-1,3,4-thiadiazol-2-yl)methoxy)pyridin-2-yl)-2,5-difluorobenzyl)-1-(oxetan-2-ylmethyl)-1H-benzo[d]imidazole-6-carboxylic acid], `O=C(O)c1ccc2nc(Cc3cc(F)c(-c4cccc(OCc5nnc(OCC(F)(F)F)s5)n4)cc3F)n(C[C@@H]3CCO3)c2c1` [Example 350, (S)-2-(2,5-difluoro-4-(6-((5-(2,2,2-trifluoroethoxy)-1,3,4-thiadiazol-2-yl)methoxy)pyridin-2-yl)benzyl)-1-(oxetan-2-ylmethyl)-1H-benzo[d]imidazole-6-carboxylic acid] is 8.9-fold lower in EC50: 1.87 nM for the first, 0.209 nM for the second. The second is the more potent here.

Compared with `CCOc1nc(C)c(COc2cccc(-c3cc(F)c(Cc4nc5ccc(C(=O)O)cc5n4C[C@@H]4CCO4)cc3F)n2)s1` [Example 349, (S)-2-(4-(6-((2-ethoxy-4-methylthiazol-5-yl)methoxy)pyridin-2-yl)-2,5-difluorobenzyl)-1-(oxetan-2-ylmethyl)-1H-benzo[d]imidazole-6-carboxylic acid], `CCOc1nc(Cl)c(COc2cccc(-c3cc(F)c(Cc4nc5ccc(C(=O)O)cc5n4C[C@@H]4CCO4)cc3F)n2)s1` [Example 353, (S)-2-(4-(6-((4-chloro-2-ethoxythiazol-5-yl)methoxy)pyridin-2-yl)-2,5-difluorobenzyl)-1-(oxetan-2-ylmethyl)-1H-benzo[d]imidazole-6-carboxylic acid] is 1.7-fold lower in EC50: 0.323 nM for the first, 0.188 nM for the second.

Going from `COc1nnc(COc2cccc(-c3cc(F)c(Cc4nc5c(F)cc(C(=O)O)cc5n4C[C@@H]4CCO4)cc3F)n2)s1` [Example 351, (S)-2-(2,5-difluoro-4-(6-((5-methoxy-1,3,4-thiadiazol-2-yl)methoxy)pyridin-2-yl)benzyl)-4-fluoro-1-(oxetan-2-ylmethyl)-1H-benzo[d]imidazole-6-carboxylic acid] to `Cn1cc(-c2ncc(COc3cccc(-c4cc(F)c(Cc5nc6ccc(C(=O)O)cc6n5C[C@@H]5CCO5)cc4F)n3)s2)cn1` [Example 355, (S)-2-(2,5-difluoro-4-(6-((2-(1-methyl-1H-pyrazol-4-yl)thiazol-5-yl)methoxy)pyridin-2-yl)benzyl)-1-(oxetan-2-ylmethyl)-1H-benzo[d]imidazole-6-carboxylic acid], the EC50 rises from 0.182 nM to 0.355 nM (2-fold). The first is the more potent here.
